Laboratory results published in PubChem BioAssay (NCI).
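Protocol summary: plate cells (96-well), add compound at 5 concentrations, incubate 48 h, interpolate endpoints linearly. At the TGI there is no net growth.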

How the values were obtained:
Test in all cases: growth of human tumour cells (NCI), 48 h
786-0 renal = test system: 786-0 renal
A498 renal = test system: A498 renal
A549 NSCLC = test system: A549 NSCLC
ACHN renal = test system: ACHN renal
BT-549 breast = test system: BT-549 breast
CAKI-1 renal = test system: CAKI-1 renal
CCRF-CEM leukemia = test system: CCRF-CEM leukemia
COLO 205 colon = test system: COLO 205 colon
DU-145 prostate = test system: DU-145 prostate
EKVX NSCLC = test system: EKVX NSCLC
HCC-2998 colon = test system: HCC-2998 colon
HCT-116 colon = test system: HCT-116 colon
HCT-15 colon = test system: HCT-15 colon
HL-60(TB) leukemia = test system: HL-60(TB) leukemia
HOP-62 NSCLC = test system: HOP-62 NSCLC
HOP-92 NSCLC = test system: HOP-92 NSCLC
HS 578T breast = test system: HS 578T breast
HT29 colon = test system: HT29 colon
IGROV1 ovarian = test system: IGROV1 ovarian
K-562 leukemia = test system: K-562 leukemia
KM12 colon = test system: KM12 colon
LOX IMVI melanoma = test system: LOX IMVI melanoma
M14 melanoma = test system: M14 melanoma
MALME-3M melanoma = test system: MALME-3M melanoma
MCF7 breast = test system: MCF7 breast
MDA-MB-231 breast = test system: MDA-MB-231 breast
MDA-MB-435 = test system: MDA-MB-435
MDA-N = test system: MDA-N
MOLT-4 leukemia = test system: MOLT-4 leukemia
NCI-H226 lung = test system: NCI-H226 lung
NCI-H23 lung = test system: NCI-H23 lung
NCI-H460 lung = test system: NCI-H460 lung
NCI-H522 lung = test system: NCI-H522 lung
NCI/ADR-RES ovarian = test system: NCI/ADR-RES ovarian
OVCAR-3 ovarian = test system: OVCAR-3 ovarian
OVCAR-4 ovarian = test system: OVCAR-4 ovarian
OVCAR-5 ovarian = test system: OVCAR-5 ovarian
OVCAR-8 ovarian = test system: OVCAR-8 ovarian
PC-3 prostate = test system: PC-3 prostate
RPMI-8226 leukemia = test system: RPMI-8226 leukemia
RXF 393 renal = test system: RXF 393 renal
SF-268 CNS = test system: SF-268 CNS
SF-295 CNS = test system: SF-295 CNS
SF-539 CNS = test system: SF-539 CNS
SK-MEL-2 melanoma = test system: SK-MEL-2 melanoma
SK-MEL-28 melanoma = test system: SK-MEL-28 melanoma
SK-MEL-5 melanoma = test system: SK-MEL-5 melanoma
SK-OV-3 ovarian = test system: SK-OV-3 ovarian
SN12C renal = test system: SN12C renal
SNB-19 CNS = test system: SNB-19 CNS
SNB-75 CNS = test system: SNB-75 CNS
SR leukemia = test system: SR leukemia
SW-620 colon = test system: SW-620 colon
T-47D breast = test system: T-47D breast
TK-10 renal = test system: TK-10 renal
U251 CNS = test system: U251 CNS
UACC-257 melanoma = test system: UACC-257 melanoma
UACC-62 melanoma = test system: UACC-62 melanoma
UO-31 renal = test system: UO-31 renal

CC(C)(C)OC(=O)NCC(=O)N(CCc1ccc(Cl)c(Cl)c1)CCN1CCCC1
TGI (786-0 renal): 28 µM
TGI (A498 renal): 32.8 µM
TGI (A549 NSCLC): 37.7 µM
TGI (ACHN renal): 40.8 µM
TGI (BT-549 breast): 42.1 µM
TGI (CAKI-1 renal): 36 µM
TGI (CCRF-CEM leukemia): 28.4 µM
TGI (COLO 205 colon): 30 µM
TGI (DU-145 prostate): 32.3 µM
TGI (EKVX NSCLC): 48.1 µM
TGI (HCC-2998 colon): 16.2 µM
TGI (HCT-116 colon): 27.9 µM
TGI (HCT-15 colon): 37.4 µM
TGI (HL-60(TB) leukemia): 30.4 µM
TGI (HOP-62 NSCLC): 27.7 µM
TGI (HOP-92 NSCLC): 19.4 µM
TGI (HS 578T breast): 46.5 µM
TGI (HT29 colon): 23.7 µM
TGI (IGROV1 ovarian): 31.5 µM
TGI (K-562 leukemia): 25.1 µM
TGI (KM12 colon): 32.6 µM
TGI (LOX IMVI melanoma): 29.3 µM
TGI (M14 melanoma): 28.6 µM
TGI (MALME-3M melanoma): 36.4 µM
TGI (MCF7 breast): 31.8 µM
TGI (MDA-MB-231 breast): 26.6 µM
TGI (MDA-MB-435): 28.4 µM
TGI (MDA-N): 29.1 µM
TGI (MOLT-4 leukemia): 28.5 µM
TGI (NCI-H226 lung): 32.3 µM
TGI (NCI-H23 lung): 37.1 µM
TGI (NCI-H460 lung): 30.2 µM
TGI (NCI-H522 lung): 29.4 µM
TGI (NCI/ADR-RES ovarian): 36.7 µM
TGI (OVCAR-3 ovarian): 32.2 µM
TGI (OVCAR-4 ovarian): 54.9 µM
TGI (OVCAR-5 ovarian): 38.7 µM
TGI (OVCAR-8 ovarian): 35.8 µM
TGI (PC-3 prostate): 30.3 µM
TGI (RPMI-8226 leukemia): 23.8 µM
TGI (RXF 393 renal): 29.7 µM
TGI (SF-268 CNS): 31.6 µM
TGI (SF-295 CNS): 33.1 µM
TGI (SF-539 CNS): 32.8 µM
TGI (SK-MEL-2 melanoma): 31.3 µM
TGI (SK-MEL-28 melanoma): 29.7 µM
TGI (SK-MEL-5 melanoma): 28.4 µM
TGI (SK-OV-3 ovarian): 32.1 µM
TGI (SN12C renal): 32.7 µM
TGI (SNB-19 CNS): 34.4 µM
TGI (SNB-75 CNS): 37.2 µM
TGI (SR leukemia): 32.2 µM
TGI (SW-620 colon): 37.3 µM
TGI (T-47D breast): 53.5 µM
TGI (TK-10 renal): 31.5 µM
TGI (U251 CNS): 28.7 µM
TGI (UACC-257 melanoma): 29.9 µM
TGI (UACC-62 melanoma): 32.2 µM
TGI (UO-31 renal): 28.7 µM

COC(=O)/C=C/C(=O)Nc1cc(Cl)c(Cl)cc1CC(=O)N(C)[C@H]1CCCC[C@@H]1N1CCCC1
TGI (786-0 renal): 22.1 µM
TGI (A498 renal): 28.9 µM
TGI (A549 NSCLC): > 54.2 µM
TGI (ACHN renal): 14.6 µM
TGI (BT-549 breast): 26.8 µM
TGI (CAKI-1 renal): 38.2 µM
TGI (CCRF-CEM leukemia): > 100 µM
TGI (COLO 205 colon): 7.21 µM
TGI (DU-145 prostate): 19.9 µM
TGI (EKVX NSCLC): 29.2 µM
TGI (HCC-2998 colon): 21.2 µM
TGI (HCT-116 colon): 23.3 µM
TGI (HCT-15 colon): 28 µM
TGI (HL-60(TB) leukemia): 5.33 µM
TGI (HOP-62 NSCLC): 33.3 µM
TGI (HOP-92 NSCLC): 18.7 µM
TGI (HS 578T breast): 36 µM
TGI (HT29 colon): 41 µM
TGI (IGROV1 ovarian): 22 µM
TGI (K-562 leukemia): > 33.5 µM
TGI (KM12 colon): > 56 µM
TGI (LOX IMVI melanoma): 24.4 µM
TGI (M14 melanoma): 32.3 µM
TGI (MALME-3M melanoma): 20.5 µM
TGI (MCF7 breast): 13.6 µM
TGI (MDA-MB-231 breast): 28.9 µM
TGI (MDA-MB-435): > 39.3 µM
TGI (MDA-N): 25.2 µM
TGI (MOLT-4 leukemia): 13.8 µM
TGI (NCI-H226 lung): 31.7 µM
TGI (NCI-H23 lung): 30.4 µM
TGI (NCI-H460 lung): 31.9 µM
TGI (NCI-H522 lung): 7.89 µM
TGI (NCI/ADR-RES ovarian): 35.1 µM
TGI (OVCAR-3 ovarian): 16.3 µM
TGI (OVCAR-4 ovarian): > 41.6 µM
TGI (OVCAR-5 ovarian): 32 µM
TGI (OVCAR-8 ovarian): 16.3 µM
TGI (PC-3 prostate): 17.9 µM
TGI (RPMI-8226 leukemia): 19.2 µM
TGI (RXF 393 renal): 17.7 µM
TGI (SF-268 CNS): 35.5 µM
TGI (SF-295 CNS): 36.2 µM
TGI (SF-539 CNS): 13.3 µM
TGI (SK-MEL-2 melanoma): 22 µM
TGI (SK-MEL-28 melanoma): 33.7 µM
TGI (SK-MEL-5 melanoma): 22.9 µM
TGI (SK-OV-3 ovarian): 37.8 µM
TGI (SN12C renal): 25.1 µM
TGI (SNB-19 CNS): 37.7 µM
TGI (SNB-75 CNS): 26.8 µM
TGI (SR leukemia): > 28.3 µM
TGI (SW-620 colon): 26.7 µM
TGI (T-47D breast): 28.5 µM
TGI (TK-10 renal): 11.1 µM
TGI (U251 CNS): 31.6 µM
TGI (UACC-257 melanoma): 13 µM
TGI (UACC-62 melanoma): 28.4 µM
TGI (UO-31 renal): 21.3 µM

N/N=C(/CC(O)(C(F)(F)F)C(F)(F)F)c1ccccc1
TGI (786-0 renal): > 10 µM
TGI (A498 renal): > 10 µM
TGI (A549 NSCLC): > 10 µM
TGI (ACHN renal): > 10 µM
TGI (BT-549 breast): > 10 µM
TGI (CAKI-1 renal): > 10 µM
TGI (CCRF-CEM leukemia): > 10 µM
TGI (COLO 205 colon): > 10 µM
TGI (DU-145 prostate): > 10 µM
TGI (EKVX NSCLC): > 10 µM
TGI (HCC-2998 colon): > 10 µM
TGI (HCT-116 colon): > 10 µM
TGI (HCT-15 colon): > 10 µM
TGI (HL-60(TB) leukemia): > 10 µM
TGI (HOP-62 NSCLC): > 10 µM
TGI (HOP-92 NSCLC): > 10 µM
TGI (HS 578T breast): > 10 µM
TGI (HT29 colon): > 10 µM
TGI (IGROV1 ovarian): > 10 µM
TGI (K-562 leukemia): > 10 µM
TGI (KM12 colon): > 10 µM
TGI (LOX IMVI melanoma): > 10 µM
TGI (M14 melanoma): > 10 µM
TGI (MALME-3M melanoma): > 10 µM
TGI (MCF7 breast): > 10 µM
TGI (MDA-MB-231 breast): > 10 µM
TGI (MDA-MB-435): > 10 µM
TGI (MDA-N): > 10 µM
TGI (MOLT-4 leukemia): > 10 µM
TGI (NCI-H226 lung): > 10 µM
TGI (NCI-H23 lung): > 10 µM
TGI (NCI-H460 lung): > 10 µM
TGI (NCI-H522 lung): > 10 µM
TGI (NCI/ADR-RES ovarian): > 10 µM
TGI (OVCAR-3 ovarian): > 10 µM
TGI (OVCAR-4 ovarian): > 10 µM
TGI (OVCAR-5 ovarian): > 10 µM
TGI (OVCAR-8 ovarian): > 10 µM
TGI (PC-3 prostate): > 10 µM
TGI (RPMI-8226 leukemia): > 10 µM
TGI (RXF 393 renal): > 10 µM
TGI (SF-268 CNS): > 10 µM
TGI (SF-295 CNS): > 10 µM
TGI (SF-539 CNS): > 10 µM
TGI (SK-MEL-2 melanoma): > 10 µM
TGI (SK-MEL-28 melanoma): > 10 µM
TGI (SK-MEL-5 melanoma): > 10 µM
TGI (SK-OV-3 ovarian): > 10 µM
TGI (SN12C renal): > 10 µM
TGI (SNB-19 CNS): > 10 µM
TGI (SNB-75 CNS): > 10 µM
TGI (SR leukemia): > 10 µM
TGI (SW-620 colon): > 10 µM
TGI (T-47D breast): > 10 µM
TGI (TK-10 renal): > 10 µM
TGI (U251 CNS): > 10 µM
TGI (UACC-257 melanoma): > 10 µM
TGI (UACC-62 melanoma): > 10 µM
